Values quoted from earlier work as cited in patent publication US10986851B2, “Control of pathogenic bacteria in foods” (priority 2018, dated 2021).

Key:
[1] = system: Salmonella; conditions: postchill decontamination tank, ground poultry parts; 0.07 and 0.1% PAA evaluated
[2] = system: Salmonella; conditions: suspension in 0.1% peptone water
[3] = system: Salmonella; conditions: ground chicken containing 9.8% fat, refrigerated storage, 200 ppm

SMILES | reduction of Salmonella [1] | inhibitory effect against Salmonella [2] | effect on growth of Salmonella [3]
CC(=O)OO [PAA, peracetic acid] | effective for the reduction of Salmonella | – | –
CCCCCCCCCCCC(=O)N[C@@H](CCCN=C(N)N)C(=O)OCC [LAE, lauric arginate] | – | strong inhibitory (P<0.05) effect | no inhibitory (P>0.05) effect
